Measured values published in PMC10218704, “A Novel Blood–Brain Barrier-Penetrating and Vascular-Targeting Chimeric Peptide Inhibits Glioma Angiogenesis” (International Journal of Molecular Sciences, 2023).

What was measured:
red blood cells = experiment: Hemolysis assay; conditions: 2.5–640 μmol/L; 37 °C, 1 h; 540 nm; mouse red blood cells; n = 3
Procedure: The fresh blood of mice was centrifuged at 2000 r/min for 10 min, and the upper layer of serum was discarded, then mixed with normal saline and centrifuged at 2000 r/min for 10 min, repeated three times, and the supernatant was removed to obtain the lower layer of red blood cells. Then, 1 mL of red blood cells was diluted to 50 mL with normal saline. […] The samples were incubated at 37 °C for 1 h, centrifuged at 2000 r/min for 10 min, and photographed. Light absorption of samples was measured at 540 nm on a microplate reader.
Cell hemolysis rate (%) = (OD experimental group − negative control group)/(OD positive control group − negative control group) × 100%.

NRP-1 [1] = conditions: peptide 1000 nmol/L; VEGF-A165 0.5-8 nmol/L; CM5 chip; HBS-EP
Procedure: The SPR assay was performed using the Biacore S200 instrument (GE Healthcare, Uppsala, Sweden). Firstly, the CM5 sensor chip was activated with EDC/NHS. Then, the recombinant VEGFR-2 and NRP-1 proteins were immobilized on the surface of the sensor chip according to the operating instructions of amine coupling. VEGF-A165 was diluted to 8, 4, 2, 1, and 0.5 nmol/L in different concentrations of peptide solution dissolved by HBS-EP buffer (0, 0.016, 0.064, 0.256, and 1 μmol/L, respectively). The Kinetics/Affinity program was selected, and the automatic continuous injection program was set. The injection flow rate was 30 μL/min, the injection time was 120 s, and the dissociation time was 220 s. At the same time, zero-concentration injection wells and 0.5 nmol/L repeat-concentration injection wells of VEGF-A165 were set. At the end of each injection, the channels were flushed with glycine-HCl solution for 30 s until response values were returned to baseline.

VEGFR-2 = format: binding, human; conditions: peptide 256 and 1000 nmol/L; VEGF-A165 0.5-8 nmol/L; CM5 chip; HBS-EP
Procedure: To determine the effect of TAT-AT7 in competition with VEGF-A165 binding to VEGFR-2 or NRP-1, the SPR assay was conducted. The whole operation was conducted on a Biacore S200 instrument. The recombinant VEGFR-2 or NRP-1 proteins were firstly immobilized on a CM5 chip by an amine-coupling reaction. VEGF-A165 ligands with gradient concentrations in the absence or presence of different peptides were then flowed over the CM5 chip. The binding of VEGF-A165 ligands to the immobilized recombinant VEGFR-2 or NRP-1 proteins led to an increase of the refractive index on the surface of the chip, which could be converted into the fluctuation of electrical signals in the response (RU). As the concentration of VEGF-A165 was higher, the response value was also higher. However, with the addition of different peptides, the response value decreased to different degrees (Figure 3A and Figure 4A).
(TAT), ATWLPPR (AT7), and […] (TAT-AT7) were synthesized from China Peptides Co., Ltd. (Shanghai, China). The Hoechst 33,258 staining kit, Annexin V-FITC/PI apoptosis detection kit, and BCA protein assay kit were obtained from Beyotime Biotechnology (Nantong, China). The total protein extraction kit was from BestBio (Shanghai, China). The CM5 sensor chip was obtained from GE Healthcare Life Sciences (Uppsala, Sweden). Purified recombinant human VEGFR-2 and NRP-1 receptor proteins were purchased from R&D Systems (Minneapolis, MN, USA). Recombinant human endothelial growth factor-A165 (VEGF-A165) was obtained from PeproTech (Rocky Hill, NJ, USA). Anti-ERK1/2, anti-p-ERK1/2, anti-p-VEGFR-2, anti-AKT, anti-p-AKT, anti-p-SRC, anti-p-FAK, anti-p38 MAPK, anti-p-p38 MAPK, anti-p-PLC-γ, and anti-GAPDH antibodies were purchased from Cell Signaling Technology (Danvers, MA, USA). Anti-VEGFR-2, anti-FAK, and anti-SRC were purchased from Proteintech Group, Inc (Wuhan, China). F-12K medium, heparin, and endothelial cell growth supplement (ECGS) were from Macgene (Beijing, China). DMEM medium and fetal bovine serum (FBS) were obtained from Gibco®, Life Technologies (Carlsbad, CA, USA). […]

[2] = tested on: intracranial U87-mCherry-luc glioma; experiment: In vivo anti-glioma study (bioluminescence); set-up: species or system nude mice; conditions: 20 mg/kg/day i.v. (tail vein), 11 days; days 4, 7, 11, 14; n = 5
Procedure: The orthotopic U87-mCherry-luc glioma-bearing nude mice were randomly assigned to 6 groups (n = 5) according to the bioluminescence intensity of glioma measured on day 4. […] The bioluminescence intensity was measured on days 4, 7, 11, and 14, respectively. Nude mice were weighed daily. On day 15, the mice were sacrificed, and the glioma-bearing brains were harvested. The brain tissues were fixed with 4.0% paraformaldehyde, embedded in paraffin, and cut into slices. The TUNEL staining and CD31 immunohistochemical staining were conducted according to standard histological procedures.

[3] = tested on: zebrafish embryo intersegmental vessel; experiment: Zebrafish embryo intersegmental vessel angiogenesis; format: in vivo; conditions: 25 µmol/L; 24 h; 28 °C; fluorescence microscope; vs control; n = 3
Procedure: After a certain period, healthy, sexually mature female and male zebrafish were mated in a 1:1 ratio. After 24 h, the fertilized eggs were removed, disinfected, and washed, and then placed in embryo culture water and cultured in an incubator at 28 °C for 24 h. The fertilized eggs were washed with chain enzyme protease E solution (1 mg/mL) to remove the egg membrane on the surface and placed under a microscope to observe and select the normally developing zebrafish embryos, and then placed into a 24-well plate. […] The control group was added with the same volume of embryo culture water, and then placed in an incubator at 28 °C for 24 h. Zebrafish embryos were randomly removed from each group and observed under a fluorescence microscope. The total length of zebrafish internode vessels was calculated and counted.

HUVECs = experiment: Annexin V-FITC/PI staining, flow cytometry (apoptosis); format: cell-based, human; conditions: 320 μmol/L, 24 h
Procedure: HUVECs were seeded into 6-well culture plates (3 × 10^5 cells/well). […] After discarding the supernatant and washing with cold PBS, the cells were fixed in 4% paraformaldehyde and stained with Hoechst 33,258 for 10 min. Then, the cells were washed with cold PBS and observed using an inverted fluorescence microscope. HUVECs were treated with different peptides (the methods were the same as the Hoechst staining). After 24 h, cells were collected by trypsin digestion and washed with PBS. Annexin V-FITC/PI staining was conducted according to the manufacturer’s instructions for the Apoptosis Detection Kit. Briefly, 195 μL of Annexin V-FITC/PI dilution buffer was added to resuspend the cells. Then, 5 μL of Annexin V-FITC and 10 μL of PI staining solutions were added and gently mixed with the cells. After incubation at room temperature in the dark for 10 min, the apoptotic cells were detected by flow cytometry.

NRP-1 [4] = tested on: NRP-1; set-up: method as in 2 sources, ref 21 = [21]; PMID 17983687; doi:10.1016/j.peptides.2007.09.013; 21. Starzec A. Ladam P. Vassy R. Badache S. Bouchemal N. Navaza A. du Penhoat C.H. Perret G.Y. Structure-function analysis of the antiangiogenic ATWLPPR peptide inhibiting VEGF (165) binding to neurop ||| ref 36 = [36]; PMID 11327725; doi:10.1006/bbrc.2001.4790; 36. Jia H. Lohr M. Jezequel S. Davis D. Shaikh S. Selwood D. Zachary I. Cysteine-rich and basic domain HIV-1 Tat peptides inhibit angiogenesis and induce endothelial cell apoptosis Biochem. Biophys. R; conditions: cited from earlier work

## N=C(N)NCCC[C@H](NC(=O)[C@H](CCCNC(=N)N)NC(=O)[C@H](CCCNC(=N)N)NC(=O)[C@H](CCC(N)=O)NC(=O)[C@H](CCCNC(=N)N)NC(=O)[C@H](CCCNC(=N)N)NC(=O)[C@H](CCCCN)NC(=O)[C@H](CCCCN)NC(=O)[C@@H](N)CCCNC(=N)N)C(=O)O [TAT, reference compound]
Red blood cells
  hemolysis: did not cause obvious hemolysis
  hemolysis rate: lower than 5%
NRP-1 [1]
  inhibition of binding of VEGF-A165 and NRP-1: displayed inhibitory effects on the binding of VEGF-A165 and NRP-1, but it did not completely inhibit the binding
VEGFR-2
  effect on VEGF-A165 and VEGFR-2 binding (RU): less inhibitory effects on VEGF-A165 and VEGFR-2 binding than TAT-AT7
[2]
  glioma growth (bioluminescence): no significant difference compared to the control group
[3]
  intersegmental vascular growth: no obvious effect on intersegmental vascular growth
HUVECs; Hoechst and Annexin V-FITC/PI staining
  induction of apoptosis: no obvious effect of promoting apoptosis
HUVECs; mean ± SD, n = 3, control (7.17 ± 1.42)%
  total apoptotic rate (Q1-UR and Q1-LR): 8.94 ± 3.52%

## KKRRQRRRPPQG [HIV-1 Tat-derived peptide]
NRP-1 [4]
  disturbing the cross-linking of VEGF to NRP-1: displayed potency in disturbing the cross-linking of VEGF to NRP-1

## KRRQRRRPPQGNQAHQDPLP [HIV-1 Tat-derived peptide]
NRP-1 [4]
  disturbing the cross-linking of VEGF to NRP-1: displayed potency in disturbing the cross-linking of VEGF to NRP-1

## SYGRKKRRQRRR [HIV-1 Tat-derived peptide]
NRP-1 [4]
  disturbing the cross-linking of VEGF to NRP-1: displayed potency in disturbing the cross-linking of VEGF to NRP-1
